Values quoted from earlier work as cited in patent publication US20060251720A1, “Localized controlled absorption of statins in the gastrointestinal tract for achieving high blood levels of statins” (priority 2004, published 2006).

How the values were obtained:
HMG-CoA reductase = molecular target: T1, HMG-CoA reductase (Homo sapiens, UniProt P04035); conditions: relative to the beta-hydroxy acid form taken as the drug
T1 sequence (P04035 1-888): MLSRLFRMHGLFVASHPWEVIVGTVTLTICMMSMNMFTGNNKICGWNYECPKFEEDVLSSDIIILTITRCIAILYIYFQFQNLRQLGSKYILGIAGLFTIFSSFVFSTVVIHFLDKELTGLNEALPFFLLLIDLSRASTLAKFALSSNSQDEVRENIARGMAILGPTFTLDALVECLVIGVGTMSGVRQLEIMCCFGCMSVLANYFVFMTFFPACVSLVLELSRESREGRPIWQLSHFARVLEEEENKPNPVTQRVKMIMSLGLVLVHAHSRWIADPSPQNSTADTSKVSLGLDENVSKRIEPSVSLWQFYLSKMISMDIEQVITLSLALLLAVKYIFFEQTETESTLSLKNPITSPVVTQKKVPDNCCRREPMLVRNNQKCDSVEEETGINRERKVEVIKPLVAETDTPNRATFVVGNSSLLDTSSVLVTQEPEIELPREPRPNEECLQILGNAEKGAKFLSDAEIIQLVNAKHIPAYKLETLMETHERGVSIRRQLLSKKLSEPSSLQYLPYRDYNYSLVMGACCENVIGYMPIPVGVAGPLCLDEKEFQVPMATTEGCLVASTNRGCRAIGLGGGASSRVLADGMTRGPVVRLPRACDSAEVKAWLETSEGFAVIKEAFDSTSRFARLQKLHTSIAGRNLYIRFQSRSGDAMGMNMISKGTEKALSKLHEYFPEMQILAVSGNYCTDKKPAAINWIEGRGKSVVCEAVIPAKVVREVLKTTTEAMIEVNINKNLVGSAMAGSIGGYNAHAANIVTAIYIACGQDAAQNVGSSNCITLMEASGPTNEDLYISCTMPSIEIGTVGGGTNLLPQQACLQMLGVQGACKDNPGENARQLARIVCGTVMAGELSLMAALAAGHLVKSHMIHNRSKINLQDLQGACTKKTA

[1] = system: plasma proteins, primarily albumin

| HMG-CoA reductase activity retained (HMG-CoA reductase) | bound to plasma proteins, primarily to albumin [1] | SMILES |
| --- | --- | --- |
| ~50% |  | CCC(C)(C)C(=O)OC1CC(C)(O)C=C2C=CC(C)C(CCC3CC(O)CC(=O)O3)C21 (stereo not drawn) [6-beta-hydroxy simvastatin] |
| approximately 40% |  | CCC(C)(C)C(=O)O[C@H]1C[C@@H](CO)C=C2C=C[C@H](C)[C@H](CC[C@@H]3C[C@@H](O)CC(=O)O3)[C@H]21 [6-beta-hydroxymethyl simvastatin] |
|  | more than 95% | CCC(C)(C)C(=O)O[C@H]1C[C@@H](C)C=C2C=C[C@H](C)[C@H](CC[C@@H]3C[C@@H](O)CC(=O)O3)[C@H]21 [simvastatin] |
